Measured values published in ChEMBL document CHEMBL1130333, “On the mechanism of chorismate mutases: Revisiting structural requirements for catalysis” (Bioorg Med Chem Lett, 1997).

Experiments:
[1] = The compound was tested for inhibition of Bacillus subtilis chorismate mutase (BcCM); weak competitive inhibitor
[2] = Rearrangement half-life at pH of 7.8 was determined; assay type: ADME; details: pH 7.8
[3] = Rearrangement half-life at pH of 7.4 was determined; assay type: ADME; details: pH 7.4

## C=C(O[C@@H]1C=CC=C[C@H]1O)C(=O)[O-].[Na+]
[1]
  Ki: 500 µM
[2]
  half-life: 186 min
[3]
  half-life: 102 min
